Assay results published in ChEMBL document CHEMBL4219248, “Design, in silico prioritization and biological profiling of apoptosis-inducing lactams amenable by the Castagnoli-Cushman reaction” (Bioorg Med Chem, 2018).

Experiments:
HCT-116 [1] = assay: Induction of apoptosis in human HCT116 p53+ cells at 5 uM by Annexin V-FITC staining-based flow cytometric analysis relative to Nutlin-3a; format: functional
U2OS [2] = assay: Cytotoxicity against human U2OS cells harboring p53-dependent EGFP reporter gene assessed as reduction in cell viability at 5 uM after 48 hrs; format: cell-based
HCT-116 [3] = assay: Antiproliferative activity against human HCT116 p53+/+ cells assessed as growth inhibition after 24 hrs by EdU/Hoechst 33342 staining-based fluorescence analysis; format: functional; details: HCT-116, 24 h
HCT-116 [4] = assay: Antiproliferative activity against human HCT116 p53-/- cells assessed as growth inhibition after 24 hrs by EdU/Hoechst 33342 staining-based fluorescence analysis; format: functional; details: HCT-116, 24 h
U2OS [5] = assay: Cytotoxicity against human U2OS cells harboring p53-dependent EGFP reporter gene assessed as reduction in cell viability at 30 uM after 48 hrs; format: cell-based

Row | GI50 (HCT-116 [3]) [µM] | GI50 (HCT-116 [4]) [µM] | Structure (SMILES) | Activity (HCT-116 [1]) [%] | Activity (U2OS [2]) | Activity (U2OS [5])
1 | – | – | Cc1ccc(CNC(=O)[C@H]2OCC(=O)N(c3ccc(F)c(Cl)c3)[C@@H]2c2cccc(F)c2)cc1 (racemic) | 20.1 | Toxic | –
2 | – | – | O=C(NCc1ccc2c(c1)OCO2)[C@H]1CC(=O)N(c2ccc(F)c(F)c2)[C@@H]1c1ccc(Cl)cc1 (mixture of isomers) | 16 | Toxic | –
3 | – | – | C=CCOc1ccc([C@@H]2[C@@H](C(=O)NCCc3ccc(OC)c(OC)c3)N(C(=O)c3cccc(F)c3)CC(=O)N2C)cc1OCC (racemic) | 0 | Toxic | –
4 | – | – | CN(C)c1ccc([C@@H]2[C@@H](C(=O)NCc3ccccc3CN3CCCC3=O)OCC(=O)N2c2ccc(Cc3ccncc3)cc2)cc1 (racemic) | 0 | Toxic | –
5 | – | – | Cc1cccc([C@@H]2[C@@H](C(=O)NCc3ccccc3)OCC(=O)N2c2ccc(F)c(Cl)c2)c1 (racemic) | 3.7 | Toxic | –
6 | – | – | COc1ccc(CN(CCCN2CCOCC2)C(=O)[C@H]2OCC(=O)N(c3ccc(Cc4ccncc4)cc3)[C@@H]2c2ccc(Cl)cc2)cc1 (racemic) | 1.6 | Toxic | –
7 | – | – | Cc1cccc([C@@H]2[C@@H](C(=O)NCc3ccc(F)cc3)OCC(=O)N2c2ccc(F)c(Cl)c2)c1 (racemic) | 17 | Toxic | –
8 | – | – | CCOc1cccc(CNC(=O)[C@H]2OCC(=O)N(c3ccccc3)[C@@H]2c2cccc(F)c2)c1 (racemic) | 3.2 | Toxic | –
9 | – | – | CC(C)Oc1ccc([C@@H]2[C@@H](C(=O)NCc3ccccc3CN3CCOCC3)CCC(=O)N2c2ccc(Cc3ccncc3)cc2)cc1 (mixture of isomers) | 1.6 | Toxic | –
10 | – | – | O=C(NCc1ccc(-n2ccnc2)cc1)[C@H]1OCC(=O)N(c2cccc(Cl)c2)[C@@H]1c1cccc(C(F)(F)F)c1 (racemic) | 39.3 | Toxic | –
11 | – | – | COc1ccc(CNC(=O)[C@H]2OCC(=O)N(c3ccc(Cc4ccncc4)cc3)[C@@H]2c2ccc(Cl)cc2)cc1 (mixture of isomers) | 6.4 | Toxic | –
12 | 22 | 71 | COc1ccc(CNC(=O)[C@H]2CC(=O)N(c3ccc(F)c(Cl)c3)[C@@H]2c2ccc(Cl)cc2)c(OC)c1 (racemic) | 75 | Toxic | –
13 | – | – | Cc1cccc([C@@H]2[C@@H](C(=O)NCc3ccc(Cl)cc3)OCC(=O)N2c2ccc(F)c(F)c2)c1 (racemic) | 7.1 | Toxic | –
14 | – | – | CCOc1cccc(CNC(=O)[C@H]2OCC(=O)N(c3ccc(F)c(Cl)c3)[C@@H]2c2cccc(F)c2)c1 (racemic) | 1.6 | Toxic | –
15 | 18 | 62 | COc1ccc(CNC(=O)[C@H]2OCC(=O)N(c3ccc(F)c(Cl)c3)[C@@H]2c2ccc(Cl)cc2)cc1 (racemic) | 85.3 | Toxic | –
16 | 12 | 40 | O=C(NCc1ccc(Cl)cc1)[C@H]1OCC(=O)N(c2cccc(Cl)c2)[C@@H]1c1cccc(C(F)(F)F)c1 (relative stereo) | 84.6 | Toxic | –
17 | – | – | Cc1cccc([C@@H]2[C@@H](C(=O)NCCc3ccc(Cl)cc3)OCC(=O)N2c2ccc(F)c(Cl)c2)c1 (racemic) | 14.3 | Toxic | –
18 | – | – | CCOc1ccc(CNC(=O)[C@H]2CC(=O)N(c3cccc(Cl)c3)[C@@H]2c2ccc(Cl)cc2)cc1 (racemic) | 27.2 | Toxic | –
19 | – | – | CC(C)Oc1ccc([C@@H]2[C@@H](C(=O)NCc3ccc(-n4ccnc4)cc3)CCC(=O)N2c2ccc(OC3CCCC3)cc2)cc1 (relative stereo) | 35.2 | Toxic | –
20 | 19 | 65 | O=C(NCc1ccc2c(c1)OCO2)[C@H]1CC(=O)N(c2cccc(Cl)c2)[C@@H]1c1cccc(F)c1 (racemic) | 79.5 | Toxic | –
21 | – | – | Cc1cccc([C@@H]2[C@@H](C(=O)NCc3ccc(Cl)cc3)OCC(=O)N2c2ccc(F)c(Cl)c2)c1 (racemic) | 16.8 | Toxic | –

Row | GI50 (HCT-116 [3]) [µM] | GI50 (HCT-116 [4]) [µM] | Structure (SMILES) | Activity (HCT-116 [1]) [%] | Activity (U2OS [2]) | Activity (U2OS [5])
22 | – | – | Cc1cccc([C@@H]2[C@@H](C(=O)NCc3cccnc3)OCC(=O)N2c2ccc(F)c(F)c2)c1 (mixture of isomers) | 6.7 | Toxic | –
23 | 6 | 38 | CC(C)(C)C[C@@H]1N[C@@H](C(=O)N[C@H]2CC[C@H](O)CC2)[C@H](c2cccc(Cl)c2F)[C@]12C(=O)Nc1cc(Cl)ccc12 [SAR-405838] | 115 | – | –
24 | 7 | 32 | O=C(NCc1ccccc1CN1CCCC1=O)[C@H]1CC(=O)N(c2ccc(F)c(Cl)c2)[C@@H]1c1ccc(Cl)cc1 (racemic) | 123.9 | Toxic | –
25 | – | – | Cc1ccc(CNC(=O)[C@H]2OCC(=O)N(c3ccc(F)c(Cl)c3)[C@@H]2c2cccc(C)c2)cc1 (racemic) | 9.5 | Toxic | –
26 | 20 | 72 | O=C(NCc1ccc2c(c1)OCO2)[C@H]1OCC(=O)N(c2cccc(Cl)c2)[C@@H]1c1ccc(Cl)cc1 (racemic) | 66.5 | Toxic | –
27 | – | – | O=C(NCc1ccc2c(c1)OCCO2)[C@H]1CC(=O)N(c2ccc(F)c(F)c2)[C@@H]1c1ccc(Cl)cc1 (racemic) | 16 | Toxic | –
28 | – | – | CCOc1cccc(CNC(=O)[C@H]2OCC(=O)N(c3ccc(F)c(F)c3)[C@@H]2c2cccc(C)c2)c1 (mixture of isomers) | 10.3 | Toxic | –
29 | – | – | CCOc1ccc(CNC(=O)[C@H]2OCC(=O)N(c3ccc(F)c(F)c3)[C@@H]2c2cccc(C)c2)cc1 (mixture of isomers) | 8.5 | Toxic | –
30 | 7 | 33 | CC(C)[C@@H](CS(=O)(=O)C(C)C)N1C(=O)[C@@](C)(CC(=O)O)C[C@H](c2cccc(Cl)c2)[C@H]1c1ccc(Cl)cc1 [NAVTEMADLIN] | 112 | – | –
31 | – | – | COCCCN(Cc1ccc(N(C)C)cc1)C(=O)[C@H]1OCC(=O)N(c2ccc(Cc3ccncc3)cc2)[C@@H]1c1ccc(Cl)cc1 (racemic) | 11.1 | Toxic | –
32 | 9 | 29 | COc1ccc(C2=N[C@@H](c3ccc(Cl)cc3)[C@@H](c3ccc(Cl)cc3)N2C(=O)N2CCNC(=O)C2)c(OC(C)C)c1 [NUTLIN-3] | – | – | Toxic
33 | – | – | COc1ccc(CNC(=O)[C@H]2OCC(=O)N(c3cccc(Cl)c3)[C@@H]2c2cccc(F)c2)cc1 (racemic) | 0 | Toxic | –
34 | – | – | Cc1cccc([C@@H]2[C@@H](C(=O)NCc3ccccc3F)OCC(=O)N2c2ccc(F)c(Cl)c2)c1 (racemic) | 18.9 | Toxic | –
35 | 8 | 29 | O=C(NCc1ccc2c(c1)OCO2)[C@H]1CC(=O)N(c2ccc(F)c(Cl)c2)[C@@H]1c1ccc(Cl)cc1 (racemic) | 90.7 | Toxic | –
36 | 30 | 80 | Cc1cccc(CNC(=O)[C@@H]2[C@@H](c3ccc(Cl)cc3)N(c3ccc(Cl)cc3)C(=O)CN2C(=O)c2ccncc2)c1 (racemic) | 63.4 | Toxic | –
37 | – | – | COc1ccc(N2C(=O)CN(C(=O)c3ccncc3)[C@H](C(=O)NCc3cccc(C)c3)[C@H]2c2ccc(Cl)cc2)cc1 (racemic) | 11.1 | Toxic | –
38 | – | – | COCCN(Cc1ccc(N(C)C)cc1)C(=O)[C@H]1CC(=O)N(c2ccc(F)c(F)c2)[C@@H]1c1ccc(Cl)cc1 (racemic) | 19.2 | Toxic | –
39 | – | – | Cc1cccc([C@@H]2[C@@H](C(=O)NCc3cccnc3)OCC(=O)N2c2ccc(F)c(Cl)c2)c1 (racemic) | 12.4 | Toxic | –
40 | 26 | 81 | COc1cc(CNC(=O)[C@H]2CCC(=O)N(c3ccccc3)[C@@H]2c2ccc(Cl)cc2)ccc1OC(C)C (racemic) | 69.1 | Toxic | –
41 | – | – | COCCCN(Cc1ccc(N2CCCC2)cc1)C(=O)[C@H]1CC(=O)N(c2cccc(Cl)c2)[C@@H]1c1ccc(Cl)cc1 (relative stereo) | 24.1 | Toxic | –
